From PMC7326275 (PLoS Pathogens, 2020)
Several values for one entry are separate records, joined by “and”; a condition that tells them apart may be missing. Equal values may be shown once. Read-outs that look alike come from different tables or passages of the source. Marks after values point to notes of the source that are not given here.

Key:
[1] = tested on: H3N2 virus (A/Fukui/20/2004); assay type: in vivo
H1N1pdm09 virus = assay type: in vivo
[2] = tested on: influenza NA protein (nine different influenza viruses); assay: Fluorometric NA inhibition assay, summary over viruses
[3] = tested on: nine different influenza viruses; assay: animal or person; assay type: in vivo; details: Mustela putorius, estimated from non-linear regression model, ferrets
[4] = tested on: H1N1 virus (A/Mississippi/3/2001); assay type: in vivo
[5] = tested on: B virus (B/Minnesota/23/2015); assay type: in vivo
[6] = tested on: H1N1pdm09 virus (A/Perth/265/2009); assay type: in vivo
[7] = B, OST dosed ferrets, maximum loss from baseline

CCOC(=O)C1=C[C@@H](OC(CC)CC)[C@H](NC(C)=O)[C@@H](N)C1 [OST, oseltamivir]
Total Score (clinical signs) ([1]; H3N2, OST dosed ferrets): 1 | Temperature clinical score ([1]; H3N2, OST dosed ferrets, maximum increase from baseline): 0 (<1) | Activity loss clinical score ([1]; H3N2, OST dosed ferrets, maximum loss from baseline): 1 (21–40) | Nasal inflammation Cell score ([1]; H3N2, OST dosed ferrets, nasal wash, maximum cell count): 0 (<1X10^6) | Nasal inflammation Protein score ([1]; H3N2, OST dosed ferrets, nasal wash, maximum protein concentration): 0 (<500) | Duration of Shedding ([1]; H3N2, ferrets, OST 5 mg/kg twice daily): 2.0 ± 0.8 days | AUC (total area under the viral shedding curve, raw data) ([1]; H3N2, ferrets, OST 5 mg/kg twice daily, mean ± SD): 3.0 ± 3.7 | % Ferrets Infected ([1]; in vivo): 50 (4/8) % | Peak Viral Titre ([1]; in vivo): 3.0 ± 0.8 Log10 TCID50/ml | Weight loss clinical score ([1]; in vivo): 0 | ferrets prevented from shedding infectious virus ([1]; in vivo): 50% | reduction of %AUC for cell counts (OST vs placebo) ([1]; in vivo): 69.2% | reduction of %AUC for protein concentration (OST vs placebo) ([1]; in vivo): 52.4% | body weight or temperature, OST- vs placebo-treated animals (H1N1pdm09 virus; H1N1pdm09, macaques, OST 3 mg/kg orally): no significant differences | viral titre lower in tracheal lavages of OST dosed macaques compared to placebo (H1N1pdm09 virus; cynomolgus monkey, in vivo): 1.9 logs | viral titres in nasal wash and tracheal lavages, OST vs placebo (H1N1pdm09 virus; cynomolgus monkey, in vivo): not significantly different | IC50 ([2]; read-out: OST IC50 values, range over nine different influenza viruses, nine viruses of the ferret study): 0.0002 to 0.414 µM | IC50 ([2]; read-out: normal IC50 values of wild-type influenza A viruses, wild-type influenza A viruses): ~0.001 µM | IC50 ([3]; read-out: IC50 corresponding to a 50% reduction in OST efficacy against viral shedding): 0.0146 µM | IC50 ([3]; read-out: IC50 corresponding to a 90% loss in oseltamivir efficacy against viral shedding): 0.0682 µM | Total Score (clinical signs) ([4]; H1N1, OST dosed ferrets): 3 | Temperature clinical score ([4]; H1N1, OST dosed ferrets, maximum increase from baseline): 1 (1.1–1.5) | Activity loss clinical score ([4]; H1N1, OST dosed ferrets, maximum loss from baseline): 1 (21–40) | Nasal inflammation Cell score ([4]; H1N1, OST dosed ferrets, nasal wash, maximum cell count): 1 (1 to 2 x10^6) | Nasal inflammation Protein score ([4]; H1N1, OST dosed ferrets, nasal wash, maximum protein concentration): 0 (<500) | difference in %AUC for weight (OST vs placebo) ([4]; H1N1, ferrets): 2.5% | Duration of Shedding ([4]; H1N1, ferrets, OST 5 mg/kg twice daily): 0.0 ± 0.0 days | AUC (total area under the viral shedding curve, raw data) ([4]; H1N1, ferrets, OST 5 mg/kg twice daily, mean ± SD): 0.0 ± 0.0 | difference in %AUC for cell count (OST vs placebo) ([4]; H1N1, ferrets, nasal wash): 67% | difference in %AUC for protein concentration (OST vs placebo) ([4]; H1N1, ferrets, nasal wash): 74% | % Ferrets Infected ([4]; in vivo): 0 (0/4) % | Weight loss clinical score ([4]; in vivo): 0 | activity levels of OST dosed ferrets ([4]; in vivo): fluctuated around pre-exposure baseline levels | ferrets infected (number infected/number exposed) ([4]; in vivo): 0/4 | Total Score (clinical signs) ([5]; B, OST dosed ferrets): 3 | Temperature clinical score ([5]; B, OST dosed ferrets, maximum increase from baseline): 0 (<1) | Activity loss clinical score [5, 7]: 1 (21–40) | Weight loss clinical score [5, 7]: 0 | Nasal inflammation Cell score ([5]; B, OST dosed ferrets, nasal wash, maximum cell count): 1 (1 to 2 x10^6) | Nasal inflammation Protein score ([5]; B, OST dosed ferrets, nasal wash, maximum protein concentration): 1 (500–1000) | % Ferrets Infected ([5]; B, ferrets, OST 5 mg/kg orally twice daily): 100 (4/4) % | Duration of Shedding ([5]; B, ferrets, OST 5 mg/kg twice daily): 5.5 ± 0.6 days | AUC (total area under the viral shedding curve, raw data) ([5]; B, ferrets, OST 5 mg/kg twice daily, mean ± SD): 12.9 ± 1.9 | Peak Viral Titre ([5]; in vivo): 3.7 ± 0.4 Log10 TCID50/ml | Total Score (clinical signs) ([6]; H1N1pdm09, OST dosed ferrets): 6 | Temperature clinical score ([6]; H1N1pdm09, OST dosed ferrets, maximum increase from baseline): 2 (1.5–2.0) | Activity loss clinical score ([6]; H1N1pdm09, OST dosed ferrets, maximum loss from baseline): 1 (21–40) | Nasal inflammation Cell score ([6]; H1N1pdm09, OST dosed ferrets, nasal wash, maximum cell count): 1 (1 to 2 x10^6) | Nasal inflammation Protein score ([6]; H1N1pdm09, OST dosed ferrets, nasal wash, maximum protein concentration): 2 (1001–1500) | difference in %AUC for activity levels (OST vs placebo) ([6]; H1N1pdm09, ferrets): 53% | Duration of Shedding ([6]; H1N1pdm09, ferrets, OST 5 mg/kg twice daily): 3.5 ± 0.7 days | AUC (total area under the viral shedding curve, raw data) ([6]; H1N1pdm09, ferrets, OST 5 mg/kg twice daily, mean ± SD): 9.3 ± 12.7 | difference in %AUC for protein concentration (OST vs placebo) ([6]; H1N1pdm09, ferrets, nasal wash): 56% | % Ferrets Infected ([6]; in vivo): 50% and 50 (2/4) % | Peak Viral Titre ([6]; in vivo): 4.2 ± 0.9 Log10 TCID50/ml | Weight loss clinical score ([6]; in vivo): 0 | difference in %AUC for weight change (OST vs placebo) ([6]; in vivo): 4.9%
